Legend:
[1] = molecular target: human alpha1 nicotinic acetylcholine (nACh) receptor (Homo sapiens, UniProt P02708); experiment: Nicotinic acetylcholine receptor antagonism assay, IONFlux automated patch clamp (Example 203); format: cell-based; conditions: for IC50: antagonism of ACh-stimulated human alpha1 nAChR current, patch clamp; for Emax at 100 µM: maximum percentage antagonism at maximum concentration tested 100 μM, read-out: Maximum Response
Experimental: Cells expressing human alpha1 nicotinic acetylcholine (nACh) receptor (nAChR) were washed and dissociated using Trypsin containing buffer. Cells were then washed and seeded at a density of 3-5 million cells/mL and allowed to grow for 3 days. Then, 60-80 μL of cells were added to plates and incubated with dose response of an ARM compound of Formula (I) with a top concentration of either 10 μM or 100 μM. The receptor was then stimulated via addition of acetylcholine (ACh) and activation of the receptor was monitored via the IONFlux automated patch clamp system. IonFlux Data Analyzer software was utilized to perform leak subtraction and measure (min) peak current amplitude.
Data processing: (1) Current values recorded for vehicle only applications in individual traps/patterns were subtracted from corresponding current amplitude values for control, test article and control+test article. (2) Control response was calculated as % of the average response of the 3rd out of total 3 ACh (10 mM) applications alone. In rare situations, if the 3rd ACh response was obscured due to technical artifacts, the 2nd and/or 1st ACh (10 mM) application was considered as control. The peak current amplitude generated in the presence of each test article concentration was then used to calculate the % inhibition as compared to control response (10 mM ACh alone). These estimates were further corrected for vehicle response and run down corrected by normalizing with time matched control responses (10 mM ACh alone). The corrected percentages were then fit with a non-linear function in GraphPad Prism 6 (or later versions) to determine the IC50.
Exclusion criteria: (i) any n's with poor recording quality, (ii) control current amplitude <500 pA or (iii) significant outliers, as determined by the Grubbs test.
ARMs compounds of Formula (I) of the invention were tested for antagonism of the nAChR in the above assay in […] experimental runs and the results are shown in Table 7 below. Antagonistic activity of the compounds of Formula (I) of the invention is reported as an IC50 value (half maximal inhibitory concentration) and the maximum percentage antagonism observed at the highest concentration of compound of Formula (I) tested, as indicated in Table 7. For compounds tested in more than one experimental run, the IC50 value is reported as an average

[2] = tested on: CCR2 expressing cells (CD11b+Ly6c+Hi) in peripheral blood; experiment: In vivo depletion assay, flow cytometry of peripheral blood (Example 201); set-up: species or system human CCR2 knock-in mice (C57 background); conditions: hCCR2 knock-in mice, IV 0.1 mpk compound + 10 mpk anti-cotinine antibody (SEQ ID NO: 13/14), peripheral blood at 48 hr
Experimental: Stock solution preparation. Stock solutions of compounds of Formula (I) were prepared at 20 mg/mL and 100 mg/mL in […] for PK/PD and dose tolerability studies respectively. Stock solutions were stored at […] until further usage. on the day of experiment, the stock Solution of the compound of Formula (I) was removed from storage at […] and thawed at room temperature. Anti-cotinine antibody having a heavy chain sequence of SEC ID NO: 13 and a light chain sequence of SEQ ID NO: 14 (rabbit variable region sequence with mouse IgG2a Fc domain), if required was removed from storage at −80° C. and thawed at room temperature. Antibody vials were immediately transferred into wet ice after thawing. Compounds of Formula (I) were further diluted in DMSO as per experimental requirements.
The formulation composition was Saline: DMSI: PBS.
Saline was added based on the quantity required and then stock solution of the compound of Formula (I) prepared in DMSO, followed by addition of antibody in PBS. Formulations were incubated at room temperature for 30 minutes before administration to the mouse. DMSO was used at 1 to % (v/v) in the final formulation.
After bleeding, each mouse was sacrificed by cervical dislocation. […] Flow Cytometry Analysis:
CCR2 depletion in peripheral blood was determined by flow cytometry. Briefly, peripheral blood was collected from all animals at the end of study termination and processed. Blood samples were lysed using 1×RBC Lysis buffer and the resulting cell pellet was washed twice in FACS buffer (HBSS containing 5% FBS). Cells were subjected to Fc blocking using mouse Fc block from Biolegend (Trustain, anti-mouse CD16/32, Cat: 101319) to block non-specific binding followed by surface staining for immune markers (CD45, CD3, CD11 b, Ly6C, human CCR2). Surface staining was done for 30 minutes in ice and cells were washed twice to remove unbound antibodies. Cells were stained with 7AAD to determine viability and acquired on BD FACSVerse flow cytometer. Appropriate FMO controls and single-color controls were included in the experiment for gating and compensation respectively.
Percent depletion of CD11 b+Ly6c+Hi cells and CCR2 expression for the different treatment groups was determined.

[3] = tested on: endogenous target monocytes in human PBMC; experiment: PBMC ex vivo monocyte depletion flow cytometry assay (Example 200); format: cell-based; conditions: with anti-cotinine antibody (SEQ ID NO: 11/12), 18-24 hours, EC50 in molar, read-out: Ex Vivo Depletion Assay pEC50 (converted)
Summary of the method: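 Monocyte depletion is reported as pEC50, averaged or given individually across runs, and read by flow cytometry staining CD45, CD14 and CD4 with a viability dye. Compounds, diluted four-fold over 11 points from 1 mM DMSO stocks, were combined with 30 μg/mL Fc-enhanced anti-cotinine antibody and human PBMC, then incubated 18-24 h at 37° C.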

human alpha1 nicotinic acetylcholine (nACh) receptor, sequence (P02708 21-457): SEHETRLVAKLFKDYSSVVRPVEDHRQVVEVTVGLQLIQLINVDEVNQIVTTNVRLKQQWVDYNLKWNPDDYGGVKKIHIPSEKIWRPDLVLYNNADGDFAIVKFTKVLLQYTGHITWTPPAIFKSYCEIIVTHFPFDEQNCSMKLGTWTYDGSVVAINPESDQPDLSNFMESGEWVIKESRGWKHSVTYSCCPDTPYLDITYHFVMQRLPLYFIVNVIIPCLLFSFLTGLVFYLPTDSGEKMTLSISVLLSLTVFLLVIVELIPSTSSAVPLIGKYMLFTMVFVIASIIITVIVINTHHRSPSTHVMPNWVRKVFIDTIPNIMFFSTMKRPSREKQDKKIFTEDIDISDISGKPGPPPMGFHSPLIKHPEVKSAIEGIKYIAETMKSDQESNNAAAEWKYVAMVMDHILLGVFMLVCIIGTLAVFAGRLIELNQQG
human alpha1 nicotinic acetylcholine (nACh) receptor, sequence (P11230 24-501 partner): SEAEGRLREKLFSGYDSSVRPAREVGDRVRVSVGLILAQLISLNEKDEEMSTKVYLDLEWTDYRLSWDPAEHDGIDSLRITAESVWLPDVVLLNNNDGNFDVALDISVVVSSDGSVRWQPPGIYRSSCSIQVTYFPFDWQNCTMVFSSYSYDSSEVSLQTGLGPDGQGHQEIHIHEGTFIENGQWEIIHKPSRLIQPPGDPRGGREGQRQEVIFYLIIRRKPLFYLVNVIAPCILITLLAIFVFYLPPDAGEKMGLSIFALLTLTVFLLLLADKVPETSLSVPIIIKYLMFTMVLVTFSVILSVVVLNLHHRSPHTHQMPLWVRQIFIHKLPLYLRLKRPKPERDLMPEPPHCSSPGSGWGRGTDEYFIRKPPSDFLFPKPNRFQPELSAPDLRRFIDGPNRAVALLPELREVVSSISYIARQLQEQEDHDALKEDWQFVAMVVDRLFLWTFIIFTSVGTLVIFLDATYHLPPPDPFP
human alpha1 nicotinic acetylcholine (nACh) receptor, sequence (Q07001 22-517 partner): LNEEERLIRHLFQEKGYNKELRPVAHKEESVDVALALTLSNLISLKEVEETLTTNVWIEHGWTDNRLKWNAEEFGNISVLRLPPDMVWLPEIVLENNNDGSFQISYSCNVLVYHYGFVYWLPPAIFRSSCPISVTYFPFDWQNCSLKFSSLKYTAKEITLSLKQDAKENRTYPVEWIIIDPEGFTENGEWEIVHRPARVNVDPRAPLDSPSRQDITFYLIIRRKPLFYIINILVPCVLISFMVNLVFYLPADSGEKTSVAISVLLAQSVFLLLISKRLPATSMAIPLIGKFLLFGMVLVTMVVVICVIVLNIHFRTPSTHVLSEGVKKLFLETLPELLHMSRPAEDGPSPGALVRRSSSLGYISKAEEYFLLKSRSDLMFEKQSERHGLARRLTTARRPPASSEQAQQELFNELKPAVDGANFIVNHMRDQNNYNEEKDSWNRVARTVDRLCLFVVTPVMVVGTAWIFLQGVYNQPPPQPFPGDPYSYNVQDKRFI

Compound	IC50 [1]	Emax at 100 µM [1]	% Depletion of CCR2 expressing cells [2]	EC50 [3]
CC(C)N(C)[C@@H]1CC[C@H](N2CC[C@H](Nc3ncnc4ccc(C(F)(F)F)cc34)C2=O)[C@H](NC(=O)[C@H]2C[C@H](NC(=O)CCCO[C@H]3CC[C@H](OCCNC(=O)[C@H]4CC(=O)N(C)[C@@H]4c4cccnc4)CC3)C2)C1 [Example 8, (2S,3S)-N-(2-(((1R,4S)-4-(4-(((1R,3R)-3-(((1R,2S,5R)-5-(Isopropyl(methyl)amino)-2-((S)-2-oxo-3-((6-(trifluoromethyl)quinazolin-4-yl)amino)pyrrolidin-1-yl)cyclohexyl)carbamoyl)cyclobutyl)amino)-4-oxobutoxy)cyclohexyl)oxy)ethyl)-1-methyl-5-oxo-2-(pyridin-3-yl)pyrrolidine-3-carboxamide]	47200 nM	73.1%	90.3%	
CC(C)N(C)[C@@H]1CC[C@H](N2CC[C@H](Nc3ncnc4ccc(C(F)(F)F)cc34)C2=O)[C@H](NC(=O)[C@H]2CC[C@@H](NC(=O)CCOCCCNC(=O)CCCNC(=O)[C@H]3CC(=O)N(C)[C@@H]3c3cccnc3)CC2)C1 [Example 17, (2S,3S)-N-(4-((3-(3-(((1S,4s)-4-(((1R,2S,5R)-5-(Isopropyl(methyl)amino)-2-((S)-2-oxo-3-((6-(trifluoromethyl)quinazolin-4-yl)amino)pyrrolidin-1-yl)cyclohexyl)carbamoyl)cyclohexyl)amino)-3-oxopropoxy)propyl)amino)-4-oxobutyl)-1-methyl-5-oxo-2-(pyridin-3-yl)pyrrolidine-3-carboxamide]	≥ 100000 nM	55.1%	91%	0.631 nM
CC(C)N(C)[C@@H]1CC[C@H](N2CC[C@H](Nc3ncnc4ccc(C(F)(F)F)cc34)C2=O)[C@H](NC(=O)[C@H]2C[C@H](NC(=O)CCOCCOCCOCCNC(=O)[C@H]3CC(=O)N(C)[C@@H]3c3cccnc3)C2)C1 [Example 27, (2S,3S)-N-(2-(2-(2-(3-(((1R,3r)-3-(((1R,2S,5R)-5-(Isopropyl(methyl)amino)-2-((S)-2-oxo-3-((6-(trifluoromethyl)quinazolin-4-yl)amino)pyrrolidin-1-yl)cyclohexyl)carbamoyl)cyclobutyl)amino)-3-oxopropoxy)ethoxy)ethoxy)ethyl)-1-methyl-5-oxo-2-(pyridin-3-yl)pyrrolidine-3-carboxamide]	93700 nM	53.8%	80%	10 nM
CC(C)N(C)[C@@H]1CC[C@H](N2CC[C@H](Nc3ncnc4ccc(C(F)(F)F)cc34)C2=O)[C@H](NC(=O)[C@H]2CC[C@H](N3CCN(C(=O)CCCCCCCCNC(=O)[C@H]4CC(=O)N(C)[C@@H]4c4cccnc4)CC3)CC2)C1 [Example 155, (2S,3S)-N-(9-(4-((1R,4r)-4-(((1R,2S,5R)-5-(Isopropyl(methyl)amino)-2-((S)-2-oxo-3-((6-(trifluoromethyl)quinazolin-4-yl)amino)pyrrolidin-1-yl)cyclohexyl)carbamoyl)cyclohexyl)piperazin-1-yl)-9-oxononyl)-1-methyl-5-oxo-2-(pyridin-3-yl)pyrrolidine-3-carboxamide]			70%	0.251 nM
CC(C)N(C)[C@@H]1CC[C@H](N2CC[C@H](Nc3ncnc4ccc(C(F)(F)F)cc34)C2=O)[C@H](NC(=O)CCCCOCCCCCCCCOCCCCNC(=O)[C@H]2CC(=O)N(C)[C@@H]2c2cccnc2)C1 [Example 161, (2S,3S)-N-(4-((8-((5-(((1R,2S,5R)-5-(Isopropyl(methyl)amino)-2-((S)-2-oxo-3-((6-(trifluoromethyl)quinazolin-4-yl)amino)pyrrolidin-1-yl)cyclohexyl)amino)-5-oxopentyl)oxy)octyl)oxy)butyl)-1-methyl-5-oxo-2-(pyridin-3-yl)pyrrolidine-3-carboxamide]			76.67%	0.794 nM
CC(C)N(C)[C@@H]1CC[C@H](N2CC[C@H](Nc3ncnc4ccc(C(F)(F)F)cc34)C2=O)[C@H](NC(=O)C2CCN(c3cnc(NCCOCCOCCNC(=O)[C@H]4CC(=O)N(C)[C@@H]4c4cccnc4)cn3)CC2)C1 [Example 162, N-((1R,2S,5R)-5-(Isopropyl(methyl)amino)-2-((S)-2-oxo-3-((6-(trifluoromethyl)quinazolin-4-yl)amino)pyrrolidin-1-yl)cyclohexyl)-1-(5-((2-(2-(2-((2S,3S)-1-methyl-5-oxo-2-(pyridin-3-yl)pyrrolidine-3-carboxamido)ethoxy)ethoxy)ethyl)amino)pyrazin-2-yl)piperidine-4-carboxamide]			66%	1.58 nM
CC(C)N(C)[C@@H]1CC[C@H](N2CC[C@H](Nc3ncnc4ccc(C(F)(F)F)cc34)C2=O)[C@H](NC(=O)[C@H]2CC[C@@H](NC(=O)C3CCC4(CC3)CCN(CCNC(=O)[C@H]3CC(=O)N(C)[C@@H]3c3cccnc3)CC4)CC2)C1 [Example 170, N-((1S,4s)-4-(((1R,2S,5R)-5-(Isopropyl(methyl)amino)-2-((S)-2-oxo-3-((6-(trifluoromethyl)quinazolin-4-yl)amino)pyrrolidin-1-yl)cyclohexyl)carbamoyl)cyclohexyl)-3-(2-((2S,3S)-1-methyl-5-oxo-2-(pyridin-3-yl)pyrrolidine-3-carboxamido)ethyl)-3-azaspiro[5.5]undecane-9-carboxamide]			94.75%	0.398 nM
CC(C)N(C)[C@@H]1CC[C@H](N2CC[C@H](Nc3ncnc4ccc(C(F)(F)F)cc34)C2=O)[C@H](NC(=O)C2CCN(C3CCN(C(=O)CCOCCOCCNC(=O)[C@H]4CC(=O)N(C)[C@@H]4c4cccnc4)CC3)CC2)C1 [Example 172, N-((1R,2S,5R)-5-(Isopropyl(methyl)amino)-2-((S)-2-oxo-3-((6-(trifluoromethyl)quinazolin-4-yl)amino)pyrrolidin-1-yl)cyclohexyl)-1′-(3-(2-(2-((2S,3S)-1-methyl-5-oxo-2-(pyridin-3-yl)pyrrolidine-3-carboxamido)ethoxy)ethoxy)propanoyl)-[1,4′-bipiperidine]-4-carboxamide]			80%	2 nM
CC(C)N(C)[C@@H]1CC[C@H](N2CC[C@H](Nc3ncnc4ccc(C(F)(F)F)cc34)C2=O)[C@H](NC(=O)CCOCCOCCO[C@H]2CC[C@H](OCCNC(=O)[C@H]3CC(=O)N(C)[C@@H]3c3cccnc3)CC2)C1 [Example 192, (2S,3S)-N-(2-(((1R,4S)-4-(2-(2-(3-(((1R,2S,5R)-5-(Isopropyl(methyl)amino)-2-((S)-2-oxo-3-((6-(trifluoromethyl)quinazolin-4-yl)amino)pyrrolidin-1-yl)cyclohexyl)amino)-3-oxopropoxy)ethoxy)ethoxy)cyclohexyl)oxy)ethyl)-1-methyl-5-oxo-2-(pyridin-3-yl)pyrrolidine-3-carboxamide]	74300 nM	53%	84.8%	

From patent US12521393B2, “Cytotoxicity targeting chimeras for CCR2-expressing cells” (GLAXOSMITHKLINE INTELLECTUAL PROPERTY DEVELOPMENT LIMITED, priority 2021, dated 2026)
